In US9140688B2, “Sperm staining and sorting methods” (INGURAN, LLC, priority 2011, dated 2015):

Tests used:
Type in all cases: cell-based
[1] = system: bovine sperm; test: Post thaw percent intact acrosomes (PIA) of sex sorted bovine sperm (Example 1); conditions: average over all bulls
Experimental: (§1) Sperm was collected from 10 different bulls on a routine collection schedule using an artificial vagina over the course of 4 days. The 10 bulls included both Jersey bulls and Holstein bulls. All ejaculates contained greater than 60% progressive motility and greater than 70% morphological normal sperm. Antibiotics were added within 15 minutes of collection.
Red food dye treatment 40% —A reduced volume of red food dye No. 40 control was established. Sperm was diluted to 160×10^6 sperm per ml in a modified TALP buffer, as described in Table 1, at a pH of 7.4. Samples collected from Jersey bulls were incubated with 16 μl of Hoechst 33342 per 2 ml of sample for between 45 and 60 minutes at 34° C., while samples collected from Holstein bulls were incubated 17 μl of Hoechst 33342 per 2 ml of sample for between 45 and 60 minutes at 34° C. After incubation an equal volume of a second modified TALP was added reducing the concentration to 80×10^6. The second modified TALP includes the components described in Table 1 with the addition of 4% egg yolk, 40 μM red food dye No. 40 (20 g/L) and the pH dropped to 5.5 with HCl. […]
(§2) Straws were thawed the following day for motility measurements at 0 hour and 3 hours. Percent intact acrosomes were measured as well, and the overall averages over all bulls on each day are illustrated in Table 3. […]

[2] = system: elk sperm; test: Post thaw motility of bulk sorted elk sperm (Example 3); conditions: 0 HR; RED TALP with 16 μL, Y6 with 14 μL Hoechst 33342
Experimental: Each of deer and elk were collected in the Tris-egg yolk catch fluid described as a catch media in Example 1, and shipped for sorting.
A portion of each of the deer and the elk were stained by the red food dye No. 40 treatment 40% with 16 μL Hoechst 33342 and the yellow food dye No. 6 treatment with 14 μL Hoechst 33342 as described in Example 1.
Samples were each bulk sorted with the same machine and parameters described in Example 1. Both sorted X and sorted Y sperm were collected into a single catch. The sorted samples were then frozen like those described in Example 1.
Frozen thawed samples were then tested for post thaw motilities and post thaw DNA fragmentation. Post thaw motilities were slightly higher in Elk sorted with a yellow quencher, while a more significant difference existed in progressive motility. In Table 10, post thaw DNA fragmentation in Elk can be seen at about double after 48 hours when red food dye No. 40 is compared to yellow food dye No. 6 as a dead quencher.

[3] = system: bovine sperm; test: Post thaw motility of sex sorted, frozen-thawed bovine sperm (Example 1); conditions: average over all bulls, Red with 16-17 μl, Yellow with 14-15 μl Hoechst 33342 per 2 ml; for Post thaw motility, average 0 Hour: dye 20 g/L in second TALP
Experimental: as §1
Red food dye treatment 40% —A reduced volume of red food dye No. 40 control was established. Sperm was diluted to 160×10^6 sperm per ml in a modified TALP buffer, as described in Table 1, at a pH of 7.4. Samples collected from Jersey bulls were incubated with 16 μl of Hoechst 33342 per 2 ml of sample for between 45 and 60 minutes at 34° C., while samples collected from Holstein bulls were incubated 17 μl of Hoechst 33342 per 2 ml of sample for between 45 and 60 minutes at 34° C. After incubation an equal volume of a second modified TALP was added reducing the concentration to 80×10^6. The second modified TALP includes the components described in Table 1 with the addition of 4% egg yolk, 40 μM red food dye No. 40 (20 g/L) and the pH dropped to 5.5 with HCl.
Yellow Food dye treatment—Yellow food dye was included in a second group at an equal concentration. Sperm was diluted to 160×10^6 sperm per ml in a modified TALP buffer, as described in Table 1, at a pH of 7.4. Samples collected from Jersey bulls were incubated with 14 μl of Hoechst 33342 per 2 ml of sample for between 45 and 60 minutes at 34° C., while sample collected from Holstein bulls were incubated 15 μl of Hoechst 33342 per 2 ml of sample for between 45 and 60 minutes at 34° C. After incubation an equal volume of a second modified TALP was added reducing the concentration to 80×10^6. The second modified TALP includes the components described in Table 1 with the addition 4% egg yolk, 20 g/L yellow food dye No. 6 and a pH dropped to 5.5 with HCl.
Just prior to sorting, each sample was filtered though a 40 μm nylon mesh. Each sample was sorted with an MoFlo SX XDP (Beckman Coulter, Inc., CA USA) operating at 40 psi. A tris-citrate-fructose sheath fluid was used comprising Tris(hydroxymethyl)aminomethane (Sigma Chemical Co, St. Louis, Mo., USA) citric acid monohydrate (Sigma Chemical Co, St. Louis, Mo., USA) and fructose (Sigma Chemical Co, St. Louis, Mo., USA). Antibiotics were additionally added to the sheath fluid.
Unquenched sperm having the desired sex characteristics were collected into a single tube with a tris-egg yolk catch fluid and the remaining sperm was removed with waste. […]
as §2

[4] = system: canine sperm; test: Post thaw motility of sex sorted canine sperm on CASA (Example 4); conditions: for Motile, average / Progressive, average: 0 Hr post thaw
Experimental: Sperm was collected from a single canine at room temperature into CaniPro Chill 5, available from Minitube, Wis., USA, then centrifuged into a pellet and resuspended in a Tris buffer at a pH of 6.8.
Samples were extended to 40×10^6 sperm/ml in 1 ml volumes with the Tris buffer described in Example 1 but set to a pH of 7.2. Ten samples were then stained 4, 4, 5, 5, 7, 8, 8, 9, 9, and 10 μL of Hoechst 33342 and quenched with one of two quenching dyes at a concentration of 50 μM in a second buffer Tris buffer.
Red food dye No. 40 quencher—1 ml Tris at a pH 6.3 was added with red food dye No. 40 into samples stained with 4, 5, 8, 9, 10 μL Hoechst 33342. The red food dye No. 40 was added at a concentration of about 50 μM.
Yellow food dye No. 6 quencher—1 ml Tris at a pH 6.3 was added with yellow food dye No. 6 into samples stained with 4, 5, 7, 8, 9 μL Hoechst 33342. The yellow food dye No. 6 was added at the same concentration as the red food dye No. 40 quencher, at about 50 μM.
5 million cells were sex sorted with a MoFlo SX XPD into 50 mL Falcon tubes having 3.5 mL of a Tris-egg yolk catch fluid, described in Example 1 for both X and Y populations. Two samples were sorted, the red food dye No. 40 quenched treatment with 9 μL Hoechst 33342 and the yellow food dye […] quenched treatment with 7 μL Hoechst 33342.
Straws were then frozen and stored in liquid nitrogen.
Straws were thawed for 30 sec in a 38° C. water bath and their motilities were examined on CASA.
Table 12 illustrates the average motilities and progressive motilities for the sorted treatments. Canine sperm quenched with yellow food dye No. 6 provided about 4.5% more motile sperm in the X population and 6.5% more motile sperm in the Y population. Similarly, the yellow quenched dye provided 7% better progressive motility in the X population and 8% better progressive motility in the Y population.

Structure (SMILES)	Average PIA (percent intact acrosomes) [1] [%]	Post Thaw Motility Elk, Motile [2]	Post Thaw Motility Elk, Progressive [2]	Post thaw motility, average 3 Hour [3] [%]	Post thaw motility, average 0 Hour [3] [%]	Motile, average ([4]; X population)	Progressive, average ([4]; X population)	Motile, average ([4]; Y population)	Progressive, average ([4]; Y population)	better progressive motility than with red quencher ([4]; X population) [%]	more motile sperm than with red quencher ([4]; X population)	better progressive motility than with red quencher ([4]; Y population) [%]	more motile sperm than with red quencher ([4]; Y population) [%]
COc1cc(S(=O)(=O)O)c(C)cc1N=Nc1c(O)ccc2cc(S(=O)(=O)O)ccc12 [Red 40, 6-hydroxy-5-[(2-methoxy-5-methyl-4-sulfophenyl)azo]-2-naphthalenesulfonic acid, reference compound]	70.8	51.0	29.0	47.0	56.6	19.5	11.5	18.5	13	–	–	–	–
O=S(=O)([O-])c1ccc(N=Nc2c(O)ccc3cc(S(=O)(=O)[O-])ccc23)cc1.[Na+].[Na+] [Yellow 6, Disodium 6-hydroxy-5-[(4-sulfophenyl)azo]-2-naphthalenesulfononate]	71.3	55.5	38.0	49.0	57.7	24	18.5	25	21	7	about 4.5%	8	6.5
